The test system of this assay is pathogenic bacteria. The experiment in a line: MIC by microdilution broth method (NCCLS M7-A4), in vitro antibacterial activity. Type of assay: cell-based. In short, it runs like this: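 MIC read after 35 °C incubation for 16–20 h relative to drug-free growth wells. Cation-adjusted Mueller-Hinton broth with two-fold compound dilutions, organisms at roughly 5×10^4 CFU/well final. Method follows NCCLS document M7-A4.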
Background: Dilution methods test growth across graded concentrations, often in twofold steps.

Where [1] appears, read: Staphylococcus aureus, Organism A: Staphylococcus aureus OC4172, read-out: MIC.
[2] abbreviates: Streptococcus pneumoniae, ATCC49619, Organism E: Streptococcus pneumoniae ATCC 49619, read-out: MIC.
The mark [3] stands for this setting: Streptococcus pneumoniae, Organism B: fluoroquinolone-resistant clinical isolate of Streptococcus pneumoniae (QRDR amino acid substitutions).
Where [4] appears, read: Streptococcus pneumoniae, Organism C: fluoroquinolone-resistant clinical isolate of Streptococcus pneumoniae (QRDR amino acid substitutions).
The mark [5] stands for this setting: Streptococcus pneumoniae, Organism D: fluoroquinolone-resistant clinical isolate of Streptococcus pneumoniae (QRDR amino acid substitutions).

Converted amounts (≈) assume the structure as drawn. Structures can show the parent of a compound that is named as a salt. Where two headings read alike, the source gives them in different places.

A word on the MIC: it is the smallest concentration in the dilution series that meets the test's criterion for growth inhibition. As to `C/C(CN)=C1/CCCN(c2c(F)cc3c(=O)c(C(=O)O)cn(-c4nc(N)c(F)cc4F)c3c2Cl)C1` [Compound 423, (E)-1-(6-Amino-3,5-difluoro-pyridin-2-yl)-7-[3-(2-amino-1-methyl-ethylidene)-piperidin-1-yl]-8-chloro-6-fluoro-4-oxo-1,4-dihydro-quinoline-3-carboxylic acid], the minimum inhibitory concentration (MIC) by setting is: under setting [1], 0.25 µg/mL (≈ 0.492 µM); under setting [2], 4 µg/mL (≈ 7.88 µM); under setting [3], greater than 16 µg/mL; under setting [4], greater than 16 µg/mL; under setting [5], greater than 16 µg/mL.
In the case of `CC(C)NCC(F)=C1CCN(c2nc3c(cc2F)c(=O)c(C(=O)O)cn3C2CC2)CC1` [Compound 247, 1-Cyclopropyl-6-fluoro-7-[4-(1-fluoro-2-isopropylamino-ethylidene)-piperidin-1-yl]-4-oxo-1,4-dihydro-[1,8]naphthyridine-3-carboxylic acid], the minimum inhibitory concentration (MIC) under setting [1] stood at 0.5 µg/mL (≈ 1.16 µM), the MIC under setting [2] was found to be 0.5 µg/mL (≈ 1.16 µM), the MIC under setting [4] was 8 µg/mL (≈ 18.5 µM) and it took 2 µg/mL (≈ 4.62 µM) to inhibit growth under setting [5] (MIC).
For `CC1COc2c(N3CCC(=C(F)CN)CC3)c(F)cc3c(=O)c(C(=O)O)cn1c23` (stereo not shown) [Compound 8, 9-[4-(2-Amino-1-fluoro-ethylidene)-piperidin-1-yl]-8-fluoro-3-methyl-6-oxo-2,3-dihydro-6H-1-oxa-3a-aza-phenalene-5-carboxylic acid], the MIC came out at 0.25 µg/mL (≈ 0.617 µM) under setting [1]; 0.5 µg/mL (≈ 1.23 µM) under setting [2]; 2 µg/mL (≈ 4.93 µM) under setting [3]; 8 µg/mL (≈ 19.7 µM) under setting [4]; 8 µg/mL (≈ 19.7 µM) under setting [5].
On to `CC(CN)=C1CN(c2c(F)cc3c(=O)c(C(=O)O)cn4c3c2OC[C@@H]4C)C1` [Compound 366, (S)-9-[3-(2-Amino-1-methyl-ethylidene)-azetidin-1-yl]-8-fluoro-3-methyl-6-oxo-2,3-dihydro-6H-1-oxa-3a-aza-phenalene-5-carboxylic Acid], for which the MIC was 4 µg/mL (≈ 10.7 µM) under setting [1], 4 µg/mL (≈ 10.7 µM) under setting [2], greater than 16 µg/mL under setting [4] and 8 µg/mL (≈ 21.4 µM) under setting [5].
Take `Cc1c(F)c(N2CCC/C(=C/CN)C2)cc2c1c(=O)c(C(=O)O)cn2C1CC1` [Compound 427, (Z)-7-[3-(2-Amino-ethylidene)-piperidin-1-yl]-1-cyclopropyl-6-fluoro-5-methyl-4-oxo-1,4-dihydro-quinoline-3-carboxylic acid]: the minimum inhibitory concentration (MIC) under setting [1] was no more than 0.015 µg/mL; the MIC under setting [2] was 0.12 µg/mL (≈ 0.311 µM); the MIC under setting [3] was determined as 2 µg/mL (≈ 5.19 µM); the minimum inhibitory concentration (MIC) under setting [4] was determined as 4 µg/mL (≈ 10.4 µM); 1 µg/mL (≈ 2.59 µM) was the least that counted as inhibitory under setting [5] (MIC).
As to `C[C@H]1COc2c(N3CCOC/C(=C(\F)CN)C3)c(F)cc3c(=O)c(C(=O)O)cn1c23` [Compound 493, 9-[(Z)-6-(2-Amino-1-fluoro-ethylidene)-[1,4]oxazepan-4-yl]-8-fluoro-(3S)-3-methyl-6-oxo-2,3-dihydro-6H-1-oxa-3a-aza-phenalene-5-carboxylic Acid], the minimum inhibitory concentration (MIC) runs as follows: under setting [1], 0.06 µg/mL (≈ 0.142 µM); under setting [2], 0.5 µg/mL (≈ 1.19 µM); under setting [4], greater than 16 µg/mL; under setting [5], 1 µg/mL (≈ 2.37 µM).
Take `COc1c(N2CC(=C(Cl)CN)C2)ccc2c(=O)c(C(=O)O)cn(C3CC3)c12` [Compound 209, 7-[3-(2-Amino-1-chloro-ethylidene)-azetidin-1-yl]-1-cyclopropyl-8-methoxy-4-oxo-1,4-dihydro-quinoline-3-carboxylic acid]: the MIC reads like this: under setting [1], 0.12 µg/mL (≈ 0.308 µM); under setting [2], 2 µg/mL (≈ 5.13 µM); under setting [4], 8 µg/mL (≈ 20.5 µM); under setting [5], 16 µg/mL (≈ 41 µM).
On to `NCC(C(=O)O)=C1CCN(c2nc3c(cc2F)c(=O)c(C(=O)O)cn3C2CC2)CC1` [Compound 286, 7-[4-(2-Amino-1-carboxy-ethylidene)-piperidin-1-yl]-1-cyclopropyl-6-fluoro-4-oxo-1,4-dihydro-[1,8]naphthyridine-3-carboxylic Acid], for which the MIC is 4 µg/mL (≈ 9.61 µM) under setting [1], 16 µg/mL (≈ 38.4 µM) under setting [2], greater than 16 µg/mL under setting [4] and greater than 16 µg/mL under setting [5].
Consider `CNCC(Cl)=C1CN(c2cc3c(cc2F)c(=O)c(C(=O)O)cn3C2CC2)C1` [Compound 431, 7-[3-(1-Chloro-2-methylamino-ethylidene)-azetidin-1-yl]-1-cyclopropyl-6-fluoro-4-oxo-1,4-dihydro-quinoline-3-carboxylic acid trifluoroacetic acid salt], for which the minimum inhibitory concentration (MIC) by setting is: (Staphylococcus aureus, Organism A: Staphylococcus aureus OC4172) 0.06 µg/mL; (Streptococcus pneumoniae, ATCC49619, Organism E: Streptococcus pneumoniae ATCC 49619) 0.25 µg/mL; under setting [3], 4 µg/mL; under setting [4], 1 µg/mL; under setting [5], 2 µg/mL.
As for `NC/C(F)=C1/CCCN(c2c(F)cc3c(=O)c(C(=O)O)cn(C4CC4)c3c2OCF)C1` [Compound 457, 7-[(E)-3-(2-Amino-1-fluoro-ethylidene)-piperidin-1-yl]-1-cyclopropyl-6-fluoro-8-fluoromethoxy-4-oxo-1,4-dihydro-quinoline-3-carboxylic Acid], the minimum inhibitory concentration (MIC) worked out at 0.25 µg/mL (≈ 0.572 µM) under setting [1]; 1 µg/mL (≈ 2.29 µM) under setting [2]; 2 µg/mL (≈ 4.57 µM) under setting [3]; 8 µg/mL (≈ 18.3 µM) under setting [4]; 4 µg/mL (≈ 9.14 µM) under setting [5].
In the case of `NCC(F)=C1CN(c2nc3c(cc2F)c(=O)c(C(=O)O)cn3-c2ccc(F)cc2F)C1` [Compound 183, 7-[3-(2-Amino-1-fluoro-ethylidene)-azetidin-1-yl]-1-(2,4-difluoro-phenyl)-6-fluoro-4-oxo-1,4-dihydro-[1,8]naphthyridine-3-carboxylic acid], the MIC is, setting by setting: under setting [1], 0.12 µg/mL (≈ 0.276 µM); under setting [2], 0.25 µg/mL (≈ 0.576 µM); under setting [4], 2 µg/mL (≈ 4.6 µM); under setting [5], 2 µg/mL (≈ 4.6 µM).
Consider `CC(C)NCC(Cl)=C1CCN(c2c(F)cc3c(=O)c(C(=O)O)cn(C4CC4)c3c2OC(F)F)CC1` [Compound 250, 7-[4-(1-Chloro-2-isopropylamino-ethylidene)-piperidin-1-yl]-1-cyclopropyl-8-difluoromethoxy-6-fluoro-4-oxo-1,4-dihydro-quinoline-3-carboxylic acid], for which the MIC under setting [1] worked out at 0.25 µg/mL (≈ 0.486 µM), the MIC under setting [2] amounted to 0.5 µg/mL (≈ 0.973 µM), the MIC under setting [4] was found to be 8 µg/mL (≈ 15.6 µM) and the lowest concentration to inhibit growth under setting [5] (MIC) was 0.5 µg/mL (≈ 0.973 µM).
Turning to `NC/C=C1\CCCN(c2c(F)cc3c(=O)c(C(=O)O)cn(C4CC4)c3c2OC(F)F)C1` [Compound 397, (E)-7-[3-(2-Amino-ethylidene)-piperidin-1-yl]-1-cyclopropyl-8-difluoromethoxy-6-fluoro-4-oxo-1,4-dihydro-quinoline-3-carboxylic acid], the MIC by setting is: under setting [1], 0.06 µg/mL (≈ 0.137 µM); under setting [2], 0.5 µg/mL (≈ 1.14 µM); under setting [4], 8 µg/mL (≈ 18.3 µM); under setting [5], 2 µg/mL (≈ 4.57 µM).
As for `C=CCC(CN)=C1CCN(c2c(F)cc3c(=O)c(C(=O)O)cn(C4CC4)c3c2OC)CC1` [Compound 203, 7-[4-(1-Aminomethyl-but-3-enylidene)-piperidin-1-yl]-1-cyclopropyl-6-fluoro-8-methoxy-4-oxo-1,4-dihydro-quinoline-3-carboxylic acid], the minimum inhibitory concentration (MIC) by setting is: under setting [1], 0.06 µg/mL (≈ 0.136 µM); under setting [2], 0.12 µg/mL (≈ 0.272 µM); under setting [3], 0.06 µg/mL (≈ 0.136 µM); under setting [4], 1 µg/mL (≈ 2.26 µM); under setting [5], 0.5 µg/mL (≈ 1.13 µM).
As for `C=CC(Cl)=C1CCN(c2nc3c(cc2F)c(=O)c(C(=O)O)cn3C2CC2)CC1` [Compound 178, 7-[4-(1-Chloro-allylidene)-piperidin-1-yl]-1-cyclopropyl-6-fluoro-4-oxo-1,4-dihydro-[1,8]naphthyridine-3-carboxylic acid], the minimal inhibitory concentration (MIC) reads like this: under setting [1], 0.5 µg/mL (≈ 1.24 µM); under setting [2], 4 µg/mL (≈ 9.9 µM); under setting [3], 1 µg/mL (≈ 2.48 µM); under setting [4], 8 µg/mL (≈ 19.8 µM); under setting [5], 4 µg/mL (≈ 9.9 µM).
In the case of `NC/C(F)=C1\CCCN(c2c(F)cc3c(=O)c(C(=O)O)cn(C4CC4)c3c2OC(F)F)C1` [Compound 395, (Z)-7-[3-(2-Amino-1-fluoro-ethylidene)-piperidin-1-yl]-1-cyclopropyl-8-difluoromethoxy-6-fluoro-4-oxo-1,4-dihydro-quinoline-3-carboxylic acid], the minimal inhibitory concentration (MIC) runs as follows: under setting [1], 0.06 µg/mL (≈ 0.132 µM); under setting [2], 0.5 µg/mL (≈ 1.1 µM); under setting [3], 4 µg/mL (≈ 8.78 µM); under setting [4], 8 µg/mL (≈ 17.6 µM); under setting [5], 0.5 µg/mL (≈ 1.1 µM).
Turning to `CNCC(F)=C1CCN(c2c(F)cc3c(=O)c(C(=O)O)cn(C4CC4)c3c2OC)CC1` [Compound 213, 1-Cyclopropyl-6-fluoro-7-[4-(1-fluoro-2-methylamino-ethylidene)-piperidin-1-yl]-8-methoxy-4-oxo-1,4-dihydro-quinoline-3-carboxylic acid], the MIC by setting is: under setting [1], 0.12 µg/mL (≈ 0.277 µM); under setting [2], 0.5 µg/mL (≈ 1.15 µM); under setting [4], 2 µg/mL (≈ 4.61 µM); under setting [5], 2 µg/mL (≈ 4.61 µM).
For the molecule `COc1c(N2CCC(=C(F)CNC(C)C)CC2)c(F)cc2c(=O)c(C(=O)O)cn(C3CC3)c12` [Compound 252, 1-Cyclopropyl-6-fluoro-7-[4-(i-fluoro-2-isopropylamino-ethylidene)-piperidin-1-yl]-8-methoxy-4-oxo-1,4-dihydro-quinoline-3-carboxylic Acid trifluoroacetic acid salt], the MIC runs as follows: under setting [1], 0.5 µg/mL; under setting [2], 1 µg/mL; under setting [4], 8 µg/mL; under setting [5], 4 µg/mL.
In the case of `CNCC(Cl)=C1CCN(c2nc3c(cc2F)c(=O)c(C(=O)O)cn3C2CC2)CC1` [Compound 216, 7-[4-(1-Chloro-2-methylamino-ethylidene)-piperidin-1-yl]-1-cyclopropyl-6-fluoro-4-oxo-1,4-dihydro-[1,8]naphthyridine-3-carboxylic acid], the minimal inhibitory concentration (MIC) (Organism A: Staphylococcus aureus OC4172) worked out at 0.06 µg/mL (≈ 0.143 µM); the minimum inhibitory concentration (MIC) (Organism B: fluoroquinolone-resistant clinical isolate of Streptococcus pneumoniae (QRDR amino acid substitutions)) came out at 0.12 µg/mL (≈ 0.285 µM); the MIC (Organism C: fluoroquinolone-resistant clinical isolate of Streptococcus pneumoniae (QRDR amino acid substitutions)) is 2 µg/mL (≈ 4.75 µM); the MIC (Organism D: fluoroquinolone-resistant clinical isolate of Streptococcus pneumoniae (QRDR amino acid substitutions)) came to 1 µg/mL (≈ 2.38 µM); the MIC (Organism E: Streptococcus pneumoniae ATCC 49619) was 0.25 µg/mL (≈ 0.594 µM).
